What was measured:
[1] = test system: primary XPA-deficient human fibroblasts; conditions: Choline 100 mM, Acetate 10 mM, alone or combined; FIG. 2 B, FIG. 7 B
Procedure: Medium was removed and cells received growth medium (1% FCS) containing either Choline (100 mM), Acetate (10 mM), or a combination of Choline (100 mM) and Acetate (10 mM) (Chol/Ac). Control cells received normal growth medium supplied with 1% FCS. 24 hours later, cells received fresh medium containing the respective compounds and were incubated for another 24 hours. The cells were washed with PBS and fixed with 2% paraformaldehyde. For immunofluorescence staining of ATP and the ATP5A subunit of the mitochondrial ATP synthase, cells were permeabilized with PBS containing 0.1% Triton X-100 and incubated with an anti-ATP antibody raised in rabbit (MyBioSource) and an anti-ATP5A antibody raised in mouse (Abcam) overnight at 4° C. Next day, antibodies were removed, and cells were washed three times with PBS containing 0.1% Triton X-100. Cells were incubated with anti-mouse and anti-rabbit secondary antibodies either labeled with a green (Alexa Fluor 488, Thermo Fisher) or with a red fluorescence dye (Alexa Fluor 594, Thermo Fisher) for 2 hours at room temperature. Antibodies were removed and cells were washed three times with PBS containing 0.1% Triton X-100. Slides were mounted using an anti-fade mounting medium (Southern Biotech) and analyzed with a fluorescence microscope (Zeiss).

[2] = test system: primary CSB-deficient human fibroblasts; assay: RNA isolation and real-time PCR, CSB fibroblasts; assay type: cell-based; conditions: Choline 100 mM, alone or combined
Procedure: (§1) 200 ng of purified RNA were used for cDNA synthesis using SuperScript reverse transcriptase (Thermo Fisher). Expression levels of the genes PKM1, PKM2, MT-ATP6, MT-ATP8, MT-ND1, MT-ND3, TFAM, SOD2, AKR1B1, HSPA2 and TFPI2 were analyzed using a CFX Connect Real-Time PCR detection system and SYBR Green Supermix (both from Bio-Rad). Expression levels of the genes mentioned above were normalized in comparison to the housekeeper genes 18S (for experiments with XPA-deficient fibroblasts) or β2-microglobulin (for experiments with CSB-deficient fibroblasts).
(§2) 200 ng of purified RNA were used for cDNA synthesis using SuperScript reverse transcriptase (Thermo Fisher). Expression levels of selected genes were analyzed using a CFX Connect Real-Time PCR detection system and SYBR Green Supermix (both from Bio-Rad).

[3] = test system: primary normal human dermal fibroblasts (NHF); assay: ATP immunofluorescence microscopy, NHF; assay type: cell-based; conditions: Choline 100 mM, Acetate 10 mM, alone or combined
Procedure: Primary NHF and XPA-deficient fibroblasts were grown on chamber glass slides (Sarstedt) in growth medium containing 15% FCS. 48 hours before UVB irradiation, medium was removed, cells were washed with PBS and received growth medium containing 1% FCS. 24 hours later, medium was removed, and cells received growth medium (1% FCS) containing Choline (100 mM) and Acetate (10 mM). Control cells received normal growth medium supplied with 1% FCS. 24 hours later, medium was removed, cells were washed with PBS and were irradiated with UVB in fresh PBS. Unirradiated control (Sham) cells grown in a second chamber were treated essentially equal but were not exposed to UVB. After irradiation, PBS was removed, and cells were treated with Choline/Acetate or control growth medium. 24 hours later, medium was removed, cells were washed with PBS and fixed with 2% paraformaldehyde. For immunofluorescence staining of ATP and the ATP5A subunit of the mitochondrial ATP synthase, cells were permeabilized with PBS containing 0.1% Triton X-100 and incubated with an anti-ATP antibody raised in rabbit (MyBioSource) and an anti-ATP5A antibody raised in mouse (Abcam) overnight at 4° C. […] Cells were incubated with anti-mouse and anti-rabbit secondary antibodies either labeled with a green (Alexa Fluor 488, Thermo Fisher) or with a red fluorescence dye (Alexa Fluor 594, Thermo Fisher) for 2 hours at room temperature. […] Slides were mounted using an anti-fade mounting medium (Southern Biotech) and analyzed with a fluorescence microscope (Zeiss).
As described herein above for FIG. 2 B, further primary normal human dermal fibroblasts (NHF) and XPA-deficient fibroblasts were grown on chamber glass slides (Sarstedt) in growth medium containing 15% FCS. […] Cells were incubated with anti-mouse and anti-rabbit secondary antibodies either labeled with a green (Alexa Fluor 488, Thermo Fisher) or with a red fluorescence dye (Alexa Fluor 594, Thermo Fisher) for 2 hours at room temperature. […] Slides were mounted using an anti-fade mounting medium (Southern Biotech) and analyzed with a fluorescence microscope (Zeiss). […]

[4] = test system: primary XPA-deficient human fibroblasts; assay: RNA isolation and real-time PCR, XPA fibroblasts; assay type: cell-based; conditions: 24 hours after UVB, Choline 100 mM, alone or combined; for RNA levels of PKM1, PKM2, MT-ATP6, MT-ATP8, SOD2, AKR1B1, HSPA2, TFPI2: Acetate 10 mM, FIG. 3; for RNA levels of CRYAB, HSPA2, ISYNA1: DMKG 10 mM, FIG. 9
Procedure: as §1
as §2, with “Bio-Rad). Expression levels of the selected genes were normalized in comparison to the housekeeper gene 18S.” for “Bio-Rad).”

[5] = test system: primary XPA-deficient human fibroblasts; assay: Protein extraction and Western blot, XPA fibroblasts; assay type: cell-based; conditions: Choline 100 mM alone or with Acetate 10 mM; FIG. 4 A
Procedure: Histone samples were stored at −80° C.

[6] = test system: primary CSB-deficient human fibroblasts; conditions: Example 2.1; Sham and UVB; Choline 100 mM, Acetate 10 mM, alone or combined; FIG. 11
Procedure: As described herein above for FIG. 2 B, primary NHF and CSB-deficient fibroblasts were grown on chamber glass slides (Sarstedt) in growth medium containing 15% FCS. 48 hours before UVB irradiation, medium was removed, cells were washed with PBS and received growth medium containing 1% FCS. 24 hours later, medium was removed, and cells received growth medium (1% FCS) containing either Choline (100 mM), Acetate (10 mM), or a combination of Choline (100 mM) and Acetate (10 mM) (Chol/Ac). Control cells received normal growth medium supplied with 1% FCS. 24 hours later, medium was removed, cells were washed with PBS and were irradiated with UVB (FIG. 11 B) in fresh PBS. Unirradiated control (Sham) cells (FIG. 11 A) grown in a second chamber were treated essentially equal but were not exposed to UVB. After irradiation, PBS was removed and cells were treated again with the respective compounds or control growth medium. 24 hours later, medium was removed, cells were washed with PBS and fixed with 2% paraformaldehyde. […] Cells were incubated with anti-mouse and anti-rabbit secondary antibodies either labeled with a green (Alexa Fluor 488, Thermo Fisher) or with a red fluorescence dye (Alexa Fluor 594, Thermo Fisher) for 2 hours at room temperature. […] Slides were mounted using an anti-fade mounting medium (Southern Biotech) and analyzed with a fluorescence microscope (Zeiss).

[7] = test system: primary XPA-deficient human fibroblasts; assay: Apoptosis measurement (annexin V/propidium iodide flow cytometry); assay type: cell-based; conditions: Cisplatin 50 μM, 24 hours, XPA Control vs XPA Cisplatin; FIG. 1 B
Procedure: Primary human fibroblasts obtained from Xeroderma pigmentosum group A (XPA) patients and Cockayne Syndrome group B (CSB) patients were purchased from Coriell Institute (USA). Normal human fibroblasts (NHF) were isolated from skin samples obtained from healthy age-matched donors undergoing skin surgery. Cells were grown in Dulbecco's Modified Eagle Medium (DMEM) supplemented with 1% glutamine, antibiotics/antimycotics (growth medium) and 15% fetal calf serum (FCS) at 37° C. in a humidified atmosphere containing 5% CO2. For experiments, cells were detached from culture flasks by treatment with 0.05% trypsin solution (5 min/37° C.). After blocking trypsin activity by adding growth medium with 10% FCS, cells were spun down, resuspended in growth medium (15% FCS) and plated in appropriate culture dishes. Cells were allowed to grow until they reached around 80% confluency. […] Next day, cells were treated with the compounds Choline Chloride (here called Choline), or Sodium Acetate (here called Acetate), or both of them (both compounds were purchased from Sigma-Aldrich). […] Cells were analyzed by using a FACSCanto flow cytometry system. The percentage of early apoptotic cells defined as annexin V (+) and propidium iodide (-) was determined.

Row | Compound | cellular ATP levels (anti-ATP antibody staining) [1] | cellular ATP levels (anti-ATP antibody staining) ([3]; Example 2, FIG. 2 B, FIG. 7 A) | RNA levels of PKM1, PKM2, MT-ATP6, MT-ATP8, SOD2, AKR1B1, HSPA2, TFPI2 [4] | RNA levels of CRYAB, HSPA2, ISYNA1 [4] | further results
1 | CC(=O)[O-].[Na+] [Acetate, Sodium Acetate] | no effect on cellular ATP abundance when given alone | no effect on cellular ATP abundance when given alone | does not increase RNA levels after UVB | – | RNA levels of SOD2, HSPA2 ([2]; 48 hours after UVB, Acetate 10 mM, FIG. 12): only little or even no effect on the RNA levels of the depicted genes
2 | C[N+](C)(C)CCO.[Cl-] [Choline, Choline Chloride] | accumulation of ATP in the cellular nuclei | accumulation of ATP in the cellular nuclei | induced gene expression | induced gene expression of CRYAB, HSPA2 and ISYNA1 | GLUT1 protein level [5]: equally increased; cellular ATP levels (anti-ATP antibody staining) [6]: accumulation of ATP in the cellular nuclei; cellular ATP levels (anti-ATP antibody staining) ([3]; Example 2.1, Sham and UVB, FIG. 11): accumulation of ATP in the cellular nuclei
3 | N.N.[Cl][Pt][Cl] [Cisplatin] | – | – | – | – | apoptosis induction by the DNA-damaging agent alone [7]: increased apoptosis (cell death) induction
4 | COC(=O)CCC(=O)C(=O)OC [DMKG, Dimethyl-α-Ketoglutarate] | – | – | – | only little (or even no) effect on most RNA levels | –
5 | CCCCCCC(=O)OCC(COC(=O)CCCCCC)OC(=O)CCCCCC [Triheptanoin] | – | – | – | – | RNA levels of AKR1B1, SOD2 ([2]; 24 hours after UVB, Triheptanoin 100 μM, FIG. 13): only little or even no positive effect on the RNA level of AKR1B1, and SOD2
